Experimental data taken from US20100267561A1, “HERBICIDAL PYRIDAZINONE DERIVATIVES” (priority 2007, published 2010).

How the values were obtained:
Type in all cases: in vivo
[1] = test system: prickly sida (Sida spinosa); assay: Test E pre-/postemergence plant response; conditions: scale 0 to 100
In short: (§1)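 Plant response was judged by eye relative to controls, 0 meaning no effect and 100 complete control, after 14 to 21 days under greenhouse conditions. Compound was formulated in a non-phytotoxic solvent mixture with surfactant.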

kochia (Kochia scoparia) = assay: Test E pre-/postemergence plant response; conditions: scale 0 to 100
In short: as §1

[2] = test system: ducksalad (Heteranthera limosa); assay: Test D flooded paddy plant response; conditions: Flood, scale 0 to 100 (0 no effect, 100 complete control), 21 days
Source text: (§2) Three plastic pots (ca. 16-cm diameter) for each application rate were partially filled with sterilized Tama silt loam soil comprising a 35:50:15 ratio of sand, silt and clay and 2.6% organic matter. Separate plantings for each of the three pots were as follows. Seeds from the U.S. of ducksalad (Heteranthera limosa), umbrella sedge (Cyperus difformis) and purple redstem (Ammannia coccinea), were planted into one 16-cm pot for each rate. Seeds from the U.S. of rice flatsedge (Cyperus iria), bearded (Brdd.) sprangletop (Leptochloa fascicularis), one stand of 9 or 10 water-seeded rice seedlings (Oryza sativa cv. ‘Japonica—M202’), and one stand of 6 transplanted rice seedlings (Oryza sativa cv. ‘Japonica—M202’) were planted into one 16-cm pot for each rate. Seeds from the U.S. of barnyardgrass (Echinochloa crus-galli), late watergrass (Echinochloa oryzicola), early watergrass (Echinochloa oryzoides) and junglerice (Echinochloa colona) were planted into one 16-cm pot for each rate. Plantings were sequential so that crop and weed species were at the 2.0 to 2.5-leaf stage at time of treatment.
(§3) Potted plants were grown in a greenhouse with day/night temperature settings of 30/27° C., and supplemental balanced lighting was provided to maintain a 16-hour photoperiod. Test pots were maintained in the greenhouse until test completion.
(§4) At time of treatment, test pots were flooded to 3 cm above the soil surface, treated by application of test compounds directly to the paddy water, and then maintained at that water depth for the duration of the test. Effects of treatments on rice and weeds were visually evaluated by comparison to untreated controls after 21 days. Plant response ratings, summarized in Table D, are based on a scale of 0 to 100 where 0 is no effect and 100 is complete control. A dash (-) response means no test result.

[3] = test system: umbrella sedge (Cyperus difformis); assay: Test D flooded paddy plant response; conditions: Flood, scale 0 to 100 (0 no effect, 100 complete control), 21 days
Source text: as §2, §3, §4

[4] = test system: bearded (Brdd.) sprangletop (Leptochloa fascicularis); assay: Test D flooded paddy plant response; conditions: Flood, scale 0 to 100 (0 no effect, 100 complete control), 21 days
Source text: as §2, §3, §4

[5] = test system: early watergrass (Echinochloa oryzoides); assay: Test D flooded paddy plant response; conditions: Flood, scale 0 to 100 (0 no effect, 100 complete control), 21 days
Source text: as §2, §3, §4

[6] = test system: late watergrass (Echinochloa oryzicola); assay: Test D flooded paddy plant response; conditions: Flood, scale 0 to 100 (0 no effect, 100 complete control), 21 days
Source text: as §2, §3, §4

[7] = test system: junglerice (Echinochloa colona); assay: Test D flooded paddy plant response; conditions: Flood, scale 0 to 100 (0 no effect, 100 complete control), 21 days
Source text: as §2, §3, §4

[8] = test system: water-seeded rice seedlings (Oryza sativa cv. ‘Japonica—M202’); assay: Test D flooded paddy plant response; conditions: Flood, scale 0 to 100 (0 no effect, 100 complete control), 21 days
Source text: as §2, §3, §4

[9] = test system: rice flatsedge (Cyperus iria); assay: Test D flooded paddy plant response; conditions: Flood, scale 0 to 100 (0 no effect, 100 complete control), 21 days
Source text: as §2, §3, §4

[10] = test system: barnyardgrass (Echinochloa crus-galli); assay: Test D flooded paddy plant response; conditions: Flood, scale 0 to 100 (0 no effect, 100 complete control), 21 days
Source text: as §2, §3, §4

[11] = test system: transplanted rice seedlings (Oryza sativa cv. ‘Japonica—M202’); assay: Test D flooded paddy plant response; conditions: Flood, scale 0 to 100 (0 no effect, 100 complete control), 21 days
Source text: as §2, §3, §4

[12] = test system: purple redstem (Ammannia coccinea); assay: Test D flooded paddy plant response; conditions: Flood, scale 0 to 100 (0 no effect, 100 complete control), 21 days
Source text: as §2, §3, §4

CCc1cc(-c2ccc(C(F)(F)F)cc2)nn1-c1c(OC(=O)OC(C)C)cnn(C)c1=O [Compound 12]
Plant response rating, Prickly Sida ([1]; 4 g ai/ha, Postemergence): 0
Plant response rating, Prickly Sida ([1]; 31 g ai/ha, Preemergence): 0
Plant response rating, Prickly Sida ([1]; Postemergence, 8 g ai/ha): 0
Plant response rating, Prickly Sida ([1]; Postemergence, 31 g ai/ha): 0
Plant response rating, Prickly Sida ([1]; Preemergence, 4 g ai/ha): 0
Plant response rating, Kochia (kochia (Kochia scoparia); 4 g ai/ha, Postemergence): 0
Plant response rating, Kochia (kochia (Kochia scoparia); 31 g ai/ha, Preemergence): 0
Plant response rating, Kochia (kochia (Kochia scoparia); Postemergence, 8 g ai/ha): 0
Plant response rating, Kochia (kochia (Kochia scoparia); Postemergence, 31 g ai/ha): 0
Plant response rating, Kochia (kochia (Kochia scoparia); Preemergence, 4 g ai/ha): 0

CCc1cc(-c2ccc(Cl)cc2)nn1-c1c(O)cnn(C)c1=O [Compound 21]
Plant response rating, Ducksalad ([2]; 16 g ai/ha): 0
Plant response rating, Ducksalad ([2]; 32 g ai/ha): 0
Plant response rating, Ducksalad ([2]; 64 g ai/ha): 0
Plant response rating, Ducksalad ([2]; 125 g ai/ha): 0
Plant response rating, Ducksalad ([2]; 250 g ai/ha): 0
Plant response rating, Sedge, Umbrella ([3]; 16 g ai/ha): 0
Plant response rating, Sedge, Umbrella ([3]; 32 g ai/ha): 0
Plant response rating, Sedge, Umbrella ([3]; 64 g ai/ha): 0
Plant response rating, Sedge, Umbrella ([3]; 125 g ai/ha): 0
Plant response rating, Sedge, Umbrella ([3]; 250 g ai/ha): 0
Plant response rating, Sprangletop, Brdd. ([4]; 16 g ai/ha): 30
Plant response rating, Sprangletop, Brdd. ([4]; 32 g ai/ha): 30
Plant response rating, Sprangletop, Brdd. ([4]; 64 g ai/ha): 80
Plant response rating, Sprangletop, Brdd. ([4]; 125 g ai/ha): 100
Plant response rating, Sprangletop, Brdd. ([4]; 250 g ai/ha): 100
Plant response rating, Watergrass, Early ([5]; 16 g ai/ha): 0
Plant response rating, Watergrass, Early ([5]; 32 g ai/ha): 40
Plant response rating, Watergrass, Early ([5]; 64 g ai/ha): 65
Plant response rating, Watergrass, Early ([5]; 125 g ai/ha): 100
Plant response rating, Watergrass, Early ([5]; 250 g ai/ha): 100
Plant response rating, Watergrass, Late ([6]; 16 g ai/ha): 0
Plant response rating, Watergrass, Late ([6]; 32 g ai/ha): 30
Plant response rating, Watergrass, Late ([6]; 64 g ai/ha): 60
Plant response rating, Watergrass, Late ([6]; 125 g ai/ha): 100
Plant response rating, Watergrass, Late ([6]; 250 g ai/ha): 100
Plant response rating, Junglerice ([7]; 16 g ai/ha): 0
Plant response rating, Junglerice ([7]; 32 g ai/ha): 70
Plant response rating, Junglerice ([7]; 64 g ai/ha): 100
Plant response rating, Junglerice ([7]; 125 g ai/ha): 100
Plant response rating, Junglerice ([7]; 250 g ai/ha): 100
Plant response rating, Rice, Water Seeded ([8]; 16 g ai/ha): 0
Plant response rating, Rice, Water Seeded ([8]; 32 g ai/ha): 20
Plant response rating, Rice, Water Seeded ([8]; 64 g ai/ha): 35
Plant response rating, Rice, Water Seeded ([8]; 125 g ai/ha): 65
Plant response rating, Rice, Water Seeded ([8]; 250 g ai/ha): 75
Plant response rating, Flatsedge, Rice ([9]; 16 g ai/ha): 0
Plant response rating, Flatsedge, Rice ([9]; 32 g ai/ha): 0
Plant response rating, Flatsedge, Rice ([9]; 64 g ai/ha): 70
Plant response rating, Flatsedge, Rice ([9]; 125 g ai/ha): 70
Plant response rating, Flatsedge, Rice ([9]; 250 g ai/ha): 70
Plant response rating, Barnyardgrass ([10]; 16 g ai/ha): 0
Plant response rating, Barnyardgrass ([10]; 32 g ai/ha): 60
Plant response rating, Barnyardgrass ([10]; 64 g ai/ha): 100
Plant response rating, Barnyardgrass ([10]; 125 g ai/ha): 100
Plant response rating, Barnyardgrass ([10]; 250 g ai/ha): 100
Plant response rating, Rice, Transplanted ([11]; 16 g ai/ha): 0
Plant response rating, Rice, Transplanted ([11]; 32 g ai/ha): 0
Plant response rating, Rice, Transplanted ([11]; 64 g ai/ha): 0
Plant response rating, Rice, Transplanted ([11]; 125 g ai/ha): 50
Plant response rating, Rice, Transplanted ([11]; 250 g ai/ha): 65
Plant response rating, Redstem, Purple ([12]; 16 g ai/ha): 0
Plant response rating, Redstem, Purple ([12]; 32 g ai/ha): 0
Plant response rating, Redstem, Purple ([12]; 64 g ai/ha): 0
Plant response rating, Redstem, Purple ([12]; 125 g ai/ha): 0
Plant response rating, Redstem, Purple ([12]; 250 g ai/ha): 0

Cc1cc(-c2ccc(Cl)cc2)nn1-c1c(OC(=O)c2cccc(Cl)c2)cnn(C)c1=O [Compound 32]
Plant response rating, Prickly Sida ([1]; Postemergence, 8 g ai/ha): 0
Plant response rating, Prickly Sida ([1]; Postemergence, 16 g ai/ha): 0
Plant response rating, Prickly Sida ([1]; Postemergence, 31 g ai/ha): 0
Plant response rating, Prickly Sida ([1]; Postemergence, 62 g ai/ha): 0
